Laboratory results: patent US8329141B2, “Locoregional internal radionuclide ablation of abnormal tissues” (Board of Regents, The University of Texas System, priority 2004, dated 2012)
Entries after “also recorded” stand apart in the source; their conditions may differ.

Assays:
[1] = In vivo local sequestration at the injection site by serial scintigrams (intramuscular or intratumoral injection); parameters: species or system Fischer rats; conditions: for clearance after intramuscular injection: thigh muscle, after only 3 hours, negative control; for effect of free iron in the injectate on retention / local sequestration / retention time with free iron: admixture with FeCl3.6H2O; for effect of free iron in the injectate on retention / local sequestration: 1 mg Fe in total injectate; for retention time with free iron: intramuscular or intratumoral injection
Description: To further study the localization of unsealed radiopharmaceuticals after injection, in vivo imaging studies were carried out comparing ^111In DTPA (In-DTPA) (negative control) and Indium-111-Iron Macroaggregate (^111In-IMA) (positive control) to ^111In—Cl. ^111In emits gamma rays that can be detected using a gamma camera. ^111In-IMA was generated according to methods disclosed in U.S. Ser. No. 10/724,027, incorporated herein by reference. Each radiopharmaceutical was administered by intramuscular injection into the thigh muscle of Fischer rats which weighed approximately 200 grams. Two different doses of ^111In—Cl were administered to the rats, 0.4 and 0.8 mCi in 0.2 ml saline. Distribution of the ^111In—Cl was determined through serial scintigrams. […] In comparison, when ^111In-IMA was administered to rats, consistent retention (84%) of the ^111In-IMA was found 70 hours after administration (FIG. 8). Persistent intramuscular localization of ^111In—Cl was also found in rats for both dose levels of ^111In—Cl, with over 50% of the injected ^111In—Cl remaining in the injection site after three days.
To investigate whether the addition of free iron to radionuclides would increase the locoregional retention of various radionuclides, admixtures of ^67Ga-citrate, YCl3, or ^111In—Cl, were prepared with FeCl3.6H2O at 1-5 mg Fe/ml. Each radionuclide combination/admixture was administered either by intramuscular (IM) injection into the thigh muscle of the left leg (0.1-1.0 mCi) or by intratumoral (IT) injection into a tumor in the right leg (0.4-5.0 mCi) of Fischer rats. Distribution of the radionuclide was determined through serial scintigrams. Whole body images were acquired with a Siemens M-CAM camera using respective photo peaks of Ga-67, Tl-201 (for Y-90), or In-111, and 15-20% windows in photo energy. The typical imaging time was 0.5 to 5 minutes. A respective standard was present in the field of view (0.1-0.5 mCi), and used for image quantification by comparing images with the standard and normalizing the initial injection time as 100%. The Fe content in each combination/admixture was 1 mg in the total injectate.

[2] = up to a 20 mg/kg systemic dose (Kalia; Mohanti et al.); cited from earlier work
rat breast cancer = conditions: systemic injection (Mortimer and Taylor; Moadel et al.); cited from earlier work
[3] = system: rat mammary cancer 13762F tumor cells; experiment: In vivo tumor growth after intratumoral injection of radiopharmaceuticals (rat mammary cancer model); parameters: species or system Fischer 344 female rats; conditions: for tumor growth / tumor development: 0.6 mCi intratumoral on day 10 in 0.1-0.2 ml saline (pH 4.5-6), FIG. 2
Description: The radionuclides YCl3, ^111In—Cl, and ^201Tl—Cl were obtained from a local supplier of radioisotopes, Iso-Tex Diagnostics (Friendswood, Tex.). YCl3 obtained from the supplier was in an acidic preparation with a pH of 2-3, and was subsequently diluted in saline to a final pH of about 4-6 before injection. Initial activities of ^111In—Cl and YCl3 were about 200-500 mCi/ml, and dilution were made with preservative-free saline. YIMA was prepared by co-precipitation, as set forth in U.S. Ser. No. 10/724,027. Briefly, 500 μl of FeCl3 (1 mg Fe/ml) was added to 30 μl of ^90Y chloride (20-40 μCi/30 μl), and either 30 μl of NaOH (1.0 N) or 10 μl of NH4OH (20.0%) was added to the solution to reach a pH of about 7.0 to 9.0. Co-precipitated YIMA radiopharmaceutical macroaggregates were then separated from remaining soluble radionuclides by centrifuging the reactions from 1500 RPM to 3000 RPM×5 minutes, and filtered using a Millipore Nylone (size: 0.45 μm, diameter: 13 mm) to isolate the radiopharmaceutical macroaggregates.
The rat model of in vivo tumor growth was generated as follows. On day zero, 100,000 rat mammary cancer 13762F tumor cells were implanted in a volume of 0.15 ml into the right thigh muscle of Fischer 344 female rats weighing approximately 160 grams. […] YIMA was injected in a volume of 0.2 ml on days 3-7 after tumor implantation. Tumor sizes and body weights of the rats were monitored regularly (5 times a week) for several weeks, or until the tumors grew beyond 2.5 cm, at which time the rats were euthanized.

[4] = intravenous; four days after injection (Kutzner et al.); cited from earlier work
[5] = cited from earlier work
serum proteins = experiment: Binding to serum proteins (Centrifree filter separation); assay type: in vitro ADME, human (patients); conditions: 0.2, 0.5 or 1 μCi added to diluted serum protein, 20 minutes; physiologic range, all concentrations tested
Description: To test the hypothesis that local sequestration of ^111In—Cl is due to protein binding, both ^111In—Cl and YCl3 were tested for binding to CSF and serum proteins. Serum proteins were obtained from residual baseline serum and CSF proteins were obtained from patients participating in other research protocols who had consented to blood sampling. To determine the level of ^111In—Cl protein binding, 0.2, 0.5, or 1 μCi of ^111In—Cl was added to diluted CSF (0.125 or 0.5) or diluted serum protein (0.125 and 0.25) and incubated for 20 minutes. To determine the level of YCl3 protein binding, 0.2, 0.5, or 1 μCi of YCl3 was added to diluted CSF (0.063 or 0.5) or diluted serum protein (0.063 and 0.375), and incubated for 20 minutes. After incubation, free radiopharmaceuticals were separated from protein bound ^111In—Cl or YCl3 using Amicon Centrifree Micropartition filters in a single centrifugation step at 3000 g for 15 minutes according to manufacturer's instructions (Amicon, Beverly, Mass.). The percent binding of YCl3 or ^111In—Cl to the CSF or serum protein was then calculated. As shown in FIG. 6 and FIG. 7 respectively, both YCl3 and ^111In—Cl bind avidly to CSF and serum protein within the physiologic range (a dilution factor between 0.2 and 0.6) at all concentrations tested. At room temperature, both YCl3 and ^111In—Cl have greater than 95% binding to serum proteins. […]

[6] = Biodistribution and projected human radiation dosimetry after intravenous or intramuscular injection; assay type: in vivo, female Fisher rats; conditions: for human dosimetry estimate, kidney / human dosimetry estimate, red marrow: from rat biodistribution
Description: To evaluate the radiation toxicity of YCl3 after intravenous or intramuscular injection, parallel experiments were performed to evaluate the biodistribution and projected human radiation dosimetry of both ^111In—Cl and YCl3. The experiments used three female Fisher rats (140-160 grams) for each set of injections. Each rat was injected intravenously, or was injected intramuscularly in the right thigh, with 0.05 mCi of YCl3 or ^111In—Cl (with no carrier added) in 0.1 ml saline (pH 5-6). The effect of initial exposure of the radiopharmaceuticals to interstitial fluid was estimated by serum protein binding experiments using Millipore Centrifree filters as set forth in Example 2. Organs including the right and left femur, as well as the right and left thigh muscles, were harvested from each rat 7 days after injection. Human dosimetry for each radiopharmaceutical was constructed using established anthropomorphic models.

CSF proteins = experiment: Binding to CSF proteins (Centrifree filter separation); assay type: in vitro ADME, human (patients); conditions: 0.2, 0.5 or 1 μCi added to diluted CSF, 20 minutes; physiologic range, all concentrations tested
Description: To test the hypothesis that local sequestration of ^111In—Cl is due to protein binding, both ^111In—Cl and YCl3 were tested for binding to CSF and serum proteins. Serum proteins were obtained from residual baseline serum and CSF proteins were obtained from patients participating in other research protocols who had consented to blood sampling. To determine the level of ^111In—Cl protein binding, 0.2, 0.5, or 1 μCi of ^111In—Cl was added to diluted CSF (0.125 or 0.5) or diluted serum protein (0.125 and 0.25) and incubated for 20 minutes. To determine the level of YCl3 protein binding, 0.2, 0.5, or 1 μCi of YCl3 was added to diluted CSF (0.063 or 0.5) or diluted serum protein (0.063 and 0.375), and incubated for 20 minutes. After incubation, free radiopharmaceuticals were separated from protein bound ^111In—Cl or YCl3 using Amicon Centrifree Micropartition filters in a single centrifugation step at 3000 g for 15 minutes according to manufacturer's instructions (Amicon, Beverly, Mass.). The percent binding of YCl3 or ^111In—Cl to the CSF or serum protein was then calculated. As shown in FIG. 6 and FIG. 7 respectively, both YCl3 and ^111In—Cl bind avidly to CSF and serum protein within the physiologic range (a dilution factor between 0.2 and 0.6) at all concentrations tested. At room temperature, both YCl3 and ^111In—Cl have greater than 95% binding to serum proteins.

human cancer cell lines = conditions: a number of human cancer cell lines; cited from earlier work
[7] = FIG. 4, in 0.5 ml saline, YCl3 0.5, 1.0, 2.0 mCi, ^111In—Cl 1.0, 4.0 mCi, FDG 1.0, 2.0, 3.0 mCi, ^67Ga—Fe 1.77 mCi

^111In DTPA [^111In-DTPA, reference compound]
clearance after intramuscular injection ([1]; intramuscular): rapidly cleared | clearance after intramuscular injection ([1]; intramuscular, listed as In-DTPA): rapid clearance

O=CC[C@@H](O)[C@H](O)[C@H](O)CO [2DG, 2-deoxy-D-glucose]
enhancement of the effects of a radiopharmaceutical [2]: effective in enhancing the effects of a radiopharmaceutical

OC[C@H]1OC(O)[C@H]([18F])[C@@H](O)[C@@H]1O (stereo partly drawn) [FDG, F-18-2-deoxy-2-fluoro-D-glucose, reference compound]
induction of apoptosis (rat breast cancer): sufficient to induce apoptosis | tumor growth [3, 7]: YCl3 appeared to be the only radiopharmaceutical that significantly suppressed tumor growth

[O]=[188Re](=[O])(=[O])[O-] [^188Re perrhenate, reference compound]
clearance from the injection site ([1]; intratumoral injection, without free iron, FIG. 16): rapidly cleared | effect of free iron in the injectate on retention / local sequestration ([1]; intratumoral injection): did not slow down the clearance

[90Y] [^90Y, Yttrium-90]
injected amount present in the bones [4]: 50%-80% | radiation toxicity in red bone marrow ([5]; by ICRP-30): 15-18 cGy/mCi | red marrow dose ([5]; derived from distribution of Yttrium-86 citrate in human PET studies (Herzog et al.)): 4-6 cGy/mCi

[Cl][111In]([Cl])[Cl] [^111In—Cl, Indium-111 chloride]
binding to serum protein (serum proteins): bind avidly | retention time with free iron [1]: Increase in the retention time | effect of free iron in the injectate on retention / local sequestration ([1]; intramuscular injection): does not appear to dramatically affect | injected radiopharmaceutical remaining in the injection site ([1]; intramuscular, 0.4 and 0.8 mCi in 0.2 ml saline (both dose levels), after three days): over 50% | effect of pH of the injectate on local sequestration ([1]; intramuscular, acidic solution (pH 3.0) vs basic solution (pH 8.0), FIG. 9): does not appear to dramatically affect | effect of free iron in the injectate on retention / local sequestration ([1]; intratumoral injection): does appear to increase | skeletal distribution ([6]; estimated from the left femur (opposite to the injection site)): about 16% | radiation uptake in the right thigh muscle ([6]; intramuscular injection in right thigh): high | radiation uptake in right femur versus contralateral organ ([6]; intramuscular injection in right thigh, decreasing over time to): 3 times higher | radiation uptake in right femur versus contralateral organ ([6]; intramuscular injection in right thigh, initial): 6 times higher | human dosimetry estimate, kidney ([6]; intramuscular): 1.13 cGy/mCi | human dosimetry estimate, red marrow ([6]; intramuscular): 0.55 cGy/mCi | organs with the highest uptake ([6]; intravenous injection, 0.05 mCi in 0.1 ml saline): spleen, liver, and kidney | human dosimetry estimate, kidney ([6]; intravenous): 10.4 cGy/mCi | human dosimetry estimate, red marrow ([6]; intravenous): 4.01 cGy/mCi | binding to CSF (CSF proteins): bind avidly | tumor growth / tumor development [3]: not suppressed; also recorded: not reduced; also recorded: did not suppress tumor development | tumor growth ([3]; FIG. 3, in 0.2-0.3 ml saline, YCl3 0.3, 0.6, 1.5 mCi, ^111In—Cl 0.6, 1.2, 2.4, 4.8 mCi, ^67Ga 0.6 mCi): YCl3 appeared to be the only radiopharmaceutical that significantly suppressed tumor growth | tumor growth [3, 7]: YCl3 appeared to be the only radiopharmaceutical that significantly suppressed tumor growth | tumor growth ([3]; FIG. 5, in 1.0 ml saline, ^111In—Cl 2.2 mCi, ^188Re EDTA 1.5 mCi with or without free iron): strong tumor suppression | change in tumor suppression with injection volume ([3]; injection volume increased from 0.2-0.3 ml and 0.5 ml to 1.0 ml, therapeutic dosage not increased): dramatic increase in tumor suppression

Rhodamine-123 [Rh-123]
toxicity to cancer cell lines (human cancer cell lines): selectively toxic

[Cl][Ga]([Cl])[Cl] [^67Ga—Cl, Gallium 67 chloride]
retention time with free iron [1]: Increase in the retention time

[Cl][201Tl] [^201Tl—Cl, Thallium-201 chloride, reference compound]
effect of free iron in the injectate on retention / local sequestration ([1]; intratumoral injection): did not dramatically slow down clearance | tumor growth / tumor development [3]: not reduced

O=C([O-])CC(O)(CC(=O)[O-])C(=O)[O-].[67Ga+3] [^67Ga citrate, Gallium 67 citrate, reference compound]
retention time with free iron [1]: Increase in the retention time | retention in the injection site ([1]; intramuscular injection, without free iron): comparatively short time
